Series [1] is described as follows: physchem. In kind it is physicochemical. To be noted: water. As to the method:
The solubility of sivelestat sodium in water is less than 0.4 mg/mL, which cannot meet the administration requirements as an injection or inhalation preparation. Besides, sivelestat sodium is prone to hydrolysis in aqueous solution, generating the impurity with the following structure (hereinafter referred to as “impurity A”).

For series [2] the following is noted: lyophilized preparation of Document 5 (anhydrous sodium carbonate, sodium chloride) kept at 60° C. for two weeks, per Document 4; cited from earlier work.

For `CC(C)(C)C(=O)Oc1ccc(S(=O)(=O)Nc2ccccc2C(=O)NCC(=O)O)cc1` [sivelestat sodium, N-[2-[[[4-(2,2-dimethyl-1-oxopropoxy)phenyl]sulfonyl]amino]benzoyl]-(S)-glycine], in series [1], the solubility (as a rule, the concentration that dissolves in the medium under given conditions) is less than 400 µg/mL. For the same compound, the “residual rate of sivelestat sodium” value in series [2] was 91.4%.

Source of the values: patent US20240082203A1, “PHARMACEUTICAL COMPOSITION FOR INHALATION” (SHANGHAI HUILUN BIOLOGICAL TECHNOLOGY CO., LTD., priority 2020, published 2024).
